# Source: patent US7385086B2 (priority 1997, dated 2008)
# Test system: isoniazid (INH) resistant M. tuberculosis
# Format: cell-based, Mycobacterium tuberculosis
Structure (SMILES),isoniazid resistance level [µg/mL],growth inhibition
"NNC(=O)c1ccncc1 [isoniazid, reference compound]",> 0.4,
"CCCCCCCCS(=O)(=O)CC(N)=O [HIII-50, n-Octanesulphonylacetamide]",,inhibits
